Patent publication US20090192125A1, “Local anti-infective agent for treatment of nail fungal infections” (DermWorx Incorporated, priority 2007, published 2009)
Where two headings read alike, the source gives them in different places.

How the values were obtained:
[1] = commercially available topical treatment of onychomycosis; cited from earlier work
[2] = for NaOM in 50 μL sample: 0.1 g nail pieces incubated 24 h at room temperature, extracted in 1 mL water for 24 h; for NaOM conc in sample: Extracting Solution
Protocol: These studies measured the penetration of stock solutions of sodium omadine in human fingernails. Sodium omadine (NaOM) 98% was obtained from Acros Organics, a division of Global Fisher Scientific.
Stock Solution #1. Dissolved 100 mg of NaOM in 100 mL of purified water (1.0 mg/mL).
Stock Solution #2. Diluted 2 mL of Stock Solution #1 to 100 mL of purified water (20 μg/mL).
Standard Solution #1 (2.50 μg/mL). Diluted 12.5 mL of Stock Solution #2 to 100 mL with purified water.
Standard Solution #2 (5.00 μg/mL). Diluted 25 mL of Stock Solution #2 to 100 mL with purified water.
Standard Solution #3 (7.50 μg/mL). Diluted 37.5 mL of Stock Solution #2 to 100 mL with purified water.
Standard Solution #4 (10.0 μg/mL). Diluted 50 mL of Stock Solution #2 to 100 mL with purified water.
Standard Solution #5 (20.0 μg/mL). No dilution was necessary, same as Stock Solution #2.
Nail clips, pooled from six human volunteers were cut into small pieces of approximately 0.5-1 mm×2-3 mm. The nail pieces, 0.1 g, were placed in each of the above solutions at room temperature and incubated for twenty-four hours. After incubation, the pieces were washed quickly three times with purified water to remove any residual solution on the nail surface. The pieces were then incubated in 1 mL of purified water for twenty-four hours at room temperature to extract the NaOM absorbed into the nail bed (“Extracting Solution”).
A standard curve of NaOM was made by measuring the absorption at 318 nm for a 500 μL sample containing 0.25, 0.50, 0.75, 1.0, and 2.0 μg of NaOM. An aliquot (50 μL) of each Standard Solution (#1-#5) was diluted to 500 μL with 1 mM cupric chloride (CuCl2). The standard solutions were freshly prepared and incubated at room temperature for fifteen minutes prior to spectrophotometric determination.
The amount of NaOM in each sample of Extracting Solution was determined at 318 nm. Similarly, a 50 μL aliquot of each Extracting Solution was diluted to 500 μL with 1 mM CuCl2 and incubated at room temperature for 15 minutes. The amount of NaOM in each sample of Extracting Solution was then determined at 318 nm by spectrophotometry. The concentration of the NaOM adsorbed into the nail was determined from the standard curve.

[3] = Penetration of hydroxypyridine-2-thione zinc (PT) into minced human fingernail clips (incubation, 30% DMSO extraction, absorption at 318 nm); type: in vitro ADME
Protocol: These studies measured the penetration of stock solutions of hydroxypyridine-2-thione zinc (PT) in human fingernails.
PT was dissolved in 100% DMSO at a concentration of 2 mg/mL to form a PT stock solution. PT working solution was made by mixing 300 μL of the PT stock solution with 700 μL of water. The final concentration was 0.6 mg/mL (30% DMSO). The nail pieces (0.1 g) were incubated in 1 mL of PT working solution overnight at room temperature. After incubation, the pieces were washed with water three times in a spin column. The pieces were then incubated in 200 μL of 30% DMSO to extract PT for 4 hours at room temperature (“Extracting Solution”).
A standard curve of PT was established by measuring the absorption at 318 nm in 500 μL samples of 30% DMSO containing 0.25, 0.5, 0.75, 1, and 2 μg PT. Standard solutions and subsequent dilutions were prepared as above. The solutions in their desired concentrations were then incubated at room temperature for 5 min prior to spectrophotometric determination.

[4] = 0.6 mg/mL PT working solution (30% DMSO), 0.1 g nail incubated overnight, extracted in 200 μL of 30% DMSO for 4 h

Cc1cc(C2CCCCC2)n(O)c(=O)c1 [Ciclopirox, ciclopirox]
penetration across the layers of the nail (in words) [1]: poor penetration

[Na+].[O-][n+]1ccccc1[S-] [NaOM, Sodium omadine]
NaOM in 0.1 g nail ([2]; Wk Sol Conc 0.01 mg/mL): 1.02 µg | NaOM in 50 μL sample ([2]; Wk Sol Conc 0.01 mg/mL): 0.34 µg | NaOM conc in sample ([2]; Wk Sol Conc 0.01 mg/mL): 7 µg/mL | NaOM in 0.1 g nail ([2]; Wk Sol Conc 0.05 mg/mL): 2.10 µg | NaOM in 50 μL sample ([2]; Wk Sol Conc 0.05 mg/mL): 0.70 µg | NaOM conc in sample ([2]; Wk Sol Conc 0.05 mg/mL): 14 µg/mL | NaOM in 0.1 g nail ([2]; Wk Sol Conc 0.1 mg/mL): 3.99 µg | NaOM in 50 μL sample ([2]; Wk Sol Conc 0.1 mg/mL): 1.33 µg | NaOM conc in sample ([2]; Wk Sol Conc 0.1 mg/mL): 27 µg/mL

[O-]n1ccccc1=S.[O-]n1ccccc1=S.[Zn+2] [PT, hydroxypyridine-2-thione zinc]
concentration of PT in Extracting Solution [3, 4]: 23000 ng/mL | concentration of PT in Extracting Solution (per 50 μL aliquot) [3, 4]: 1.15 μg/50 μL | penetration into fingernails (conclusion in words) ([3]; twelve hours or less incubation time): significant penetration
